The record followed here is publication PMC7300217, “Surfactin Like Broad Spectrum Antimicrobial Lipopeptide Co-produced With Sublancin From Bacillus subtilis Strain A52: Dual Reservoir of Bioactives” (Frontiers in Microbiology, 2020).

One data set deals with C. glabrata MTCC 3019. Nature of the data set: MIC, microtiter plate dilution assay. The format is cell-based. Conditions: 5 × 10^5 CFU/ml, 37°C, OD600 after 48 h, triplicate. On the procedure: (§1) The antimicrobial activity was tested by well diffusion assay as mentioned earlier ([Singh et al., 2014]). Strain A52 was grown for 24 h in 500 ml of nutrient broth (NB, Hi-media, India) using 1000 ml flask and subsequently cells were removed by centrifugation (10,000 rpm for 15 min at 4°C). Supernatant was filtered through 0.22 μm filter (Millipore, United States) to obtain cell-free fermented broth (CFB) that was used for antimicrobial assay (50 μl) against various indicator strains and the activity was measured as diameter of inhibition zone. Test strains used were Staphylococcus aureus (MTCC 1430), Bacillus subtilis (MTCC 121), B. firmus (MTCC 488), B. licheniformis (MTCC 429), B. thuringiensis (MTCC 1953), Escherichia coli (MTCC 1610), Micrococcus luteus (MTCC 106), Steptococcus pyrogens (MTCC 1928), S. anginosus (MTCC 1929), S. oralis (MTCC 2696), S. mutans (MTCC 497), Candida albicans (MTCC 1637), C. albicans (MTCC 183), C. albicans (MTCC 227), C. tropicalis (MTCC 184), C. glabrata (MTCC 3019), C. haemulonii (MTCC 2766), and C. inconsplicue (MTCC 1074). The phytopathogenic fungi employed in this study were Alternaria brassicicola (MTCC 2102), Colletotrichum acutatum (MTCC 1037), and Fusarium moniliforme (MTCC 158). Clinical isolates of Candida were provided by National Culture Collection of Pathogenic Fungi (NCCPF), PGIMER, Chandigarh, India.
(§2) The minimum inhibitory concentration (MIC) of HPLC purified peptides was evaluated by using microtiter plate dilution assay. The peptide concentration was estimated using BCA protein assay (Thermo Fisher Scientific, United States) method as described by manufacturer. Actively growing test strains (5 × 10^5 CFU/ml) were inoculated in a 96-well plate with different concentrations of the peptides and plates were incubated for 24–48 h at 37°C (final volume in each well is 200 μl). OD was measured at 600 nm after 24 and 48 h for bacteria and yeast, respectively, using ELISA microplate reader (Thermo, United States). MIC against phytopathogenic fungi was determined using 96-well microtiter plate assay ([Kaur et al., 2016]). In 96-well microplates, 100 μl of fungal spore suspension (1 × 10^5 spores/ml) prepared in potato dextrose broth (PDB, Hi-media, India) was mixed with100 μl of fresh PDB containing different concentrations of lipopeptide. Control well contained 100 μl of fungal spore suspension and 100 μl of only medium. The microplates were incubated at 25°C and readings were recorded at 600 nm after 48 h. The lowest concentration showing no growth was considered as MIC. Each test was done in triplicate and optical density (OD600) of peptide treated wells were compared with uninoculated wells (blank medium control).

In data set [1] the test system is C. glabrata SKSS ID (clinical isolate). Nature of the data set: MIC, microtiter plate dilution assay. The format is cell-based. Conditions: 5 × 10^5 CFU/ml, 37°C, OD600 after 48 h, triplicate. On the procedure:
as §1, §2

For a further data set, the system named is C. haemulonii MTCC 2766. Nature of the data set: MIC, microtiter plate dilution assay. The format is cell-based. Conditions: 5 × 10^5 CFU/ml, 37°C, OD600 after 48 h, triplicate. As for the experimental part: as §1, §2
Data set [2] concerns C. parasilosis 450030 (clinical isolate). As to the kind of experiment: MIC, microtiter plate dilution assay. The format is cell-based. The settings on record: 5 × 10^5 CFU/ml, 37°C, OD600 after 48 h, triplicate. As for the experimental part: as §1, §2
Data set [3] concerns C. tropicalis 420024 (clinical isolate). As to the kind of experiment: MIC, microtiter plate dilution assay. The format is cell-based. The settings on record: 5 × 10^5 CFU/ml, 37°C, OD600 after 48 h, triplicate. On the procedure: as §1, §2
The next data set deals with S. mutans MTCC 497. As to the kind of experiment: MIC, microtiter plate dilution assay. The format is cell-based. The settings on record: 5 × 10^5 CFU/ml, 37°C, OD600 after 24 h, triplicate. On the procedure:
as §1, §2

The subject of the next data set is S. oralis MTCC 2696. As to the kind of experiment: MIC, microtiter plate dilution assay. The format is cell-based. Conditions: 5 × 10^5 CFU/ml, 37°C, OD600 after 24 h, triplicate. As for the experimental part: as §1, §2
The next data set has as its system S. pyogenes MTCC 1928. Nature of the data set: MIC, microtiter plate dilution assay. The format is cell-based. The settings on record: 5 × 10^5 CFU/ml, 37°C, OD600 after 24 h, triplicate. As for the experimental part: as §1, §2
Another data set concerns E. coli MTCC 1610. As to the kind of experiment: MIC, microtiter plate dilution assay. The format is cell-based, Escherichia coli. The settings on record: 5 × 10^5 CFU/ml, 37°C, OD600 after 24 h, triplicate. As for the experimental part: The antimicrobial activity was tested by well diffusion assay as mentioned earlier ([Singh et al., 2014]). Strain A52 was grown for 24 h in 500 ml of nutrient broth (NB, Hi-media, India) using 1000 ml flask and subsequently cells were removed by centrifugation (10,000 rpm for 15 min at 4°C). Supernatant was filtered through 0.22 μm filter (Millipore, United States) to obtain cell-free fermented broth (CFB) that was used for antimicrobial assay (50 μl) against various indicator strains and the activity was measured as diameter of inhibition zone. […]
The minimum inhibitory concentration (MIC) of HPLC purified peptides was evaluated by using microtiter plate dilution assay. […] OD was measured at 600 nm after 24 and 48 h for bacteria and yeast, respectively, using ELISA microplate reader (Thermo, United States). MIC against phytopathogenic fungi was determined using 96-well microtiter plate assay ([Kaur et al., 2016]). […] The microplates were incubated at 25°C and readings were recorded at 600 nm after 48 h. […]

Data set [4] can be described thus: Temperature sensitivity, residual antimicrobial activity. The format is physicochemical. Conditions: residual antimicrobial activity by well diffusion assay at RT; for Residual activity (%), temperature 100 ºC: 100 °C. On the procedure:
(§3) Sensitivity of purified peptides toward temperature, pH, and non-specific proteases was confirmed by performing bioassays. The pH stability was determined by adjusting the pH 2.0–12.0 of peptide aliquots (using 10 mM HCl or NaOH) and incubating for 4 h at room temperature. Samples were neutralized to pH 7.0 before processing for antimicrobial assay. To determine temperature susceptibility, peptides were incubated at different temperatures ranging from 37 to 100°C for 1 h and 121°C for 15 min and residual antimicrobial activity was determined at RT by well diffusion assay. Proteolytic enzymes trypsin and proteinase K (Sigma, United States) were used at three different concentrations (0.1, 1.0, and 5.0 mg/ml) to observe their effect on the peptide. The enzyme solutions were prepared in 50 mM phosphate buffer (pH 7.0). All reactions were performed at 37°C for 6 h followed by deactivation of enzyme by heating the solution in boiling water for 5 min before performing the activity assay.

The next data set concerns the target T1, proteinase K (Parengyodontium album, UniProt P06873).
T1 construct: purchased Sigma, United States
As to the kind of experiment: Sensitivity to proteolytic enzyme, residual antimicrobial activity. The format is in vitro ADME. Conditions: 6h/ 37°C, enzyme 0.1, 1.0 and 5.0 mg/ml in 50 mM phosphate buffer pH 7.0, enzyme deactivated in boiling water 5 min. As for the experimental part:
as §3

The next data set has as its system S. aureus MTCC 1430. Nature of the data set: TLC overlay bioautography. The format is cell-based, Staphylococcus aureus. Conditions: ∼10^6 cells/ml, 24 h at 37°C. As for the experimental part:
Purified antimicrobial peptides were analyzed on TLC plates (Silica gel 60 F254, Merck, Germany) and used to determine the purity and antimicrobial activity of the compound by bioautographic assay ([Zheng et al., 2005]). About 50–60 μl of the peptide solution (100 μg/ml concentration) was loaded onto individual TLC silica gel plates in duplicates and were developed using a solvent system containing chloroform: […]: water (65:12:4 v/v). Subsequently, each TLC plate was dried, cut into two vertical parts, and one part of the TLC was used for direct detection of antimicrobial activity by overlaying on NA plate containing indicator strain (S. aureus MTCC 1430, ∼10^6 cells/ml). After allowing for 1 h of diffusion at 4°C, the TLC strip was removed and plates were incubated for 24 h at 37°C. The other part of TLC strip (5–10 μl of the peptide solution spot) was sprayed with ninhydrin and phosphomolybdic acid as a staining reagent to detect the presence of peptides and lipid moieties, respectively. Similarly, peptides were electrophoresed on 16% Tricine-SDS-PAGE and used for in-gel activity assay as described earlier ([Baindara et al., 2016]). S. aureus MTCC 1430 (∼10^6 cells/ml) was used as an indicator strain in assay.

T1 sequence (P06873 106-384): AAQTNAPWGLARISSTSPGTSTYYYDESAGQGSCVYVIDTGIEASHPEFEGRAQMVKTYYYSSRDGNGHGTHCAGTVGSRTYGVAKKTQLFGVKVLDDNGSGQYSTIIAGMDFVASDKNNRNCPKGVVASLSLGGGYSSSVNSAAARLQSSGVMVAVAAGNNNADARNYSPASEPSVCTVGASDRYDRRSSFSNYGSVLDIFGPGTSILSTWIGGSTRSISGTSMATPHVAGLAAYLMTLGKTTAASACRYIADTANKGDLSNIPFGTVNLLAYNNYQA

Regarding “Glu^1-Leu/Ile^2-Leu^3-Val^4-Asp^5-Leu^6-Leu/Ile^7 and a β-OH hexadecane fatty acid chain (lariat or depsi) [Lipopeptide A52, cyclic surfactin-like lipopeptide, 7 amino acids and C16 β-hydroxy fatty acid, 1061.9 Da, from B. subtilis strain A52]”, the “MIC value, C. glabrata MTCC 3019” value with C. glabrata MTCC 3019 stood at 16 µg/mL. In addition, the “MIC value, C. glabrata SKSS ID” value in data set [1] came to 16 µg/mL. In addition, the “MIC value, C. haemulonii MTCC 2766” value against C. haemulonii MTCC 2766 is 20 µg/mL. The “MIC value, C. parasilosis 450030” value in [2] was determined as 28 µg/mL. In data set [3], the “MIC value, C. tropicalis 420024” value worked out at 28 µg/mL. Besides, the “MIC value, S. mutans MTCC 497” value against S. mutans MTCC 497 stood at 6 µg/mL. In the data set on S. oralis MTCC 2696, the “MIC value, S. oralis MTCC 2696” value came to 4 µg/mL. Besides, in the data set with S. pyogenes MTCC 1928, the “MIC value, S. pyogenes MTCC 1928” value stood at 2 µg/mL. Moreover, the “MIC value, E. coli MTCC 1610” value against E. coli MTCC 1610 came to 6 µg/mL. In data set [4] (37 °C, 1h), the “Residual activity (%), temperature 37 ºC” value came to 100%. Further, the “Residual activity (%), temperature 50 ºC” value in [4] (50 °C, 1h) turned out to be 100%. Besides, in data set [4] (60 °C, 1h), the “Residual activity (%), temperature 60 ºC” value is 100%. Moreover, the “Residual activity (%), temperature 70 ºC” value in [4] (70 °C, 1h) worked out at 100%. For the same substance, the “Residual activity (%), temperature 80 ºC” value in data set [4] (80 °C, 1h) was determined as 100%. Moreover, the “Residual activity (%), temperature 100 ºC” value in data set [4] (1h, listed as Lipopeptide) is listed as 100%; in data set [4] (1h, listed as surfactin-like lipopeptide) it was “not affected”. Besides, the “Residual activity (%), temperature 121 ºC (autoclaving)” value in data set [4] (121 °C, 15 min (15 lbs)) was 89.0%. On proteinase K, the “Residual activity (%), Proteinase k” value was found to be 100%. Further, in the data set with S. aureus MTCC 1430, the “inhibition in TLC based overlay bioautographic assay” value is “inhibited”.
